Experimental findings from US5213978A, “Protease from Micrococcus sedentarius for degrading protein of human callus or corn tissue” (Scholl Plc, priority 1990, dated 1993) are described below.

This assay concerns Micrococcus sedentarius NCIMB 40287. As to the kind of experiment: Antibiotic sensitivities by the disc method. The note with it: disc amount as printed per antibiotic (1 unit, 5-30 μg). It counts as cell-based.

Consider `CN[C@H](CC(C)C)C(=O)N[C@H]1C(=O)N[C@@H](CC(N)=O)C(=O)N[C@H]2C(=O)N[C@H]3C(=O)N[C@H](C(=O)N[C@H](C(=O)O)c4cc(O)cc(O)c4-c4cc3ccc4O)[C@H](O)c3ccc(c(Cl)c3)Oc3cc2cc(c3O[C@@H]2O[C@H](CO)[C@@H](O)[C@H](O)[C@H]2O[C@H]2C[C@](C)(N)[C@H](O)[C@H](C)O2)Oc2ccc(cc2Cl)[C@H]1O` [Vanomycin], for which the Antibiotic sensitivity entry is “S”. With Neomycin the entry was “S”.
